# Source: ChEMBL document CHEMBL1201862, “PubChem BioAssay data set” (2004)
#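 Briefly, cells in 96-well plates were exposed to five compound concentrations for 48 h, and endpoints were estimated by linear interpolation. At the GI50, growth is halved.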 Calls of active or inactive are those of the source. No stated cut-off is given here; in the data, active = GI50 up to about 1.1 µM and inactive = higher.
# Columns and labels:
# Assay in all cases: NCI tumour cell line growth inhibition, 48 h
# SR = test system: SR
# DU-145 = test system: DU-145
# T47D = test system: T47D
# RPMI-8226 = test system: RPMI-8226
# MDA-MB-231 = test system: MDA-MB-231
# SK-MEL-2 = test system: SK-MEL-2
# OVCAR-5 = test system: OVCAR-5
# NCI-H226 = test system: NCI-H226
# UO-31 = test system: UO-31
# K562 = test system: K562
# Hs-578T = test system: Hs-578T
# M14 = test system: M14
# IGROV-1 = test system: IGROV-1
# SF-268 = test system: SF-268
# SF-539 = test system: SF-539
# HT-29 = test system: HT-29
# OVCAR-4 = test system: OVCAR-4
# SW-620 = test system: SW-620
# CAKI-1 = test system: CAKI-1
# SK-OV-3 = test system: SK-OV-3
Compound,GI50 (SR),GI50 (DU-145),GI50 (T47D),GI50 (RPMI-8226),GI50 (MDA-MB-231),GI50 (SK-MEL-2),GI50 (OVCAR-5),GI50 (NCI-H226),GI50 (UO-31),GI50 (K562),GI50 (Hs-578T),GI50 (M14),GI50 (IGROV-1),GI50 (SF-268),GI50 (SF-539),GI50 (HT-29),GI50 (OVCAR-4),GI50 (SW-620),GI50 (CAKI-1),GI50 (SK-OV-3)
CC[C@@H](C)[C@H]([C@H](CC(=O)N1CCC[C@@H]1[C@@H](OC)[C@H](C)C(=O)N[C@H](Cc1ccccc1)c1nccs1)OC)N(C)C(=O)[C@H](NC(=O)[C@@H](C(C)C)N(C)C)C(C)C,2.75e-05 µM (active),< 0.01 µM (active),> 77.6 µM (inactive),0.000143 µM (active),< 0.01 µM (active),0.000125 µM (active),0.0005 µM (active),0.000153 µM (active),0.00206 µM (active),6.93e-05 µM (active),< 0.01 µM (active),0.000165 µM (active),0.000681 µM (active),0.00039 µM (active),0.000168 µM (active),2.24e-05 µM (active),0.000745 µM (active),9.12e-05 µM (active),,
CC(=O)OCC1OC(N2C(C)=C(C(C)=O)C(c3ccc(Cl)cc3)C(C#N)=C2S)C(OC(C)=O)C(OC(C)=O)C1OC(C)=O (stereo unspecified),28.2 µM (inactive),68.5 µM (inactive),24.5 µM (inactive),37.9 µM (inactive),87.5 µM (inactive),37.6 µM (inactive),> 100 µM (inactive),44.1 µM (inactive),36.8 µM (inactive),31.1 µM (inactive),28.5 µM (inactive),56.8 µM (inactive),57.5 µM (inactive),65.8 µM (inactive),44.1 µM (inactive),42.7 µM (inactive),51.6 µM (inactive),5.46 µM (inactive),> 100 µM (inactive),
O=C1NN=C(O)C2C3c4ccccc4C(c4ccccc43)C12 (stereo unspecified),> 100 µM (inactive),> 100 µM (inactive),> 100 µM (inactive),> 100 µM (inactive),> 100 µM (inactive),,> 100 µM (inactive),> 100 µM (inactive),> 100 µM (inactive),> 100 µM (inactive),> 100 µM (inactive),> 100 µM (inactive),> 100 µM (inactive),> 100 µM (inactive),> 100 µM (inactive),> 100 µM (inactive),> 100 µM (inactive),> 100 µM (inactive),> 100 µM (inactive),> 100 µM (inactive)
COC(=O)C(Cc1ccc(OC)cc1O)NC(=O)OC(C)(C)C (stereo unspecified),> 100 µM (inactive),> 100 µM (inactive),> 100 µM (inactive),,> 100 µM (inactive),> 100 µM (inactive),> 100 µM (inactive),> 100 µM (inactive),> 100 µM (inactive),> 100 µM (inactive),> 100 µM (inactive),> 100 µM (inactive),> 100 µM (inactive),> 100 µM (inactive),> 100 µM (inactive),> 100 µM (inactive),> 100 µM (inactive),> 100 µM (inactive),> 100 µM (inactive),> 100 µM (inactive)
O=C1c2ccc3cc(CCl)cc(O)c3c2C(=O)c2cccc(O)c21,0.447 µM (active),4.95 µM (inactive),7.48 µM (inactive),2.21 µM (inactive),1.08 µM (active),1.64 µM (inactive),> 10 µM (inactive),2.7 µM (inactive),,3.44 µM (inactive),> 10 µM (inactive),0.239 µM (active),> 10 µM (inactive),2.16 µM (inactive),2.39 µM (inactive),,2.67 µM (inactive),0.145 µM (active),> 10 µM (inactive),> 10 µM (inactive)
COC(=O)C1=C(O)C(C(=O)OC)[C@@]2(O)[C@@H](C(=O)OC)C(c3ccc(OC(=O)/C(=C/c4ccccc4)c4ccccc4)cc3)C[C@@H]1[C@@H]2C(=O)OC (stereo partly specified),6.73 µM (inactive),20.5 µM (inactive),> 100 µM (inactive),,23.9 µM (inactive),14.9 µM (inactive),80.4 µM (inactive),9.86 µM (inactive),10.9 µM (inactive),9.25 µM (inactive),27.7 µM (inactive),7.03 µM (inactive),19 µM (inactive),47.3 µM (inactive),2.46 µM (inactive),25.4 µM (inactive),16.9 µM (inactive),8.09 µM (inactive),11.9 µM (inactive),> 100 µM (inactive)
c1ccc2c3c([nH]c2c1)C1c2[nH]c4ccccc4c2CCN1CC3,9.75 µM (inactive),13.2 µM (inactive),14.9 µM (inactive),11.9 µM (inactive),14.7 µM (inactive),26.8 µM (inactive),19.5 µM (inactive),14.7 µM (inactive),5.62 µM (inactive),5.78 µM (inactive),17.3 µM (inactive),,12.7 µM (inactive),14.4 µM (inactive),17.5 µM (inactive),10.9 µM (inactive),4.49 µM (inactive),16.2 µM (inactive),18.7 µM (inactive),14.1 µM (inactive)
